Test results published in patent US20220370609A1, “Polymer complex for anticancer immune therapy based on ultrasound comprising oxalate derivatives and Method of preparation thereof” (RESEARCH & BUSINESS FOUNDATION SUNGKYUNKWAN UNIVERSITY, priority 2021, published 2022).

System: CT26 cells
Assay: Cell death type by FITC-annexin V and PI staining
Type: cell-based
Conditions: 5 μM VPF, 2 hours, ultrasound 5 minutes
Experimental: CT26 colorectal cells were cultured in an RPMI 1640 medium containing 10% fetal bovine serum (FBS) and 1% antibiotic-antimycotic. 5×10^6 of CT26 cells were treated with Ox@PEG-VPF and the controls for 2 hours based on 5 μM VPF, and then resuspended in 1 ml of the RPMI 1640 medium, followed by ultrasound treatment for 5 minutes.
After 100 μl of the CT26 cell suspension that had been treated with ultrasound was resuspended in 900 μl of the FITC-annexin V/PI mixed solution and maintained for 30 minutes, the resulting cells were washed twice with PBS and observed by confocal microscopy.
Specifically, the Ox@ PEG-VPF of the present invention reacted with a high concentration of ROS present in cancer cells to produce CO2 in the cells, and was treated with a FITC-labeled annexin compound (FITC-annexin V; excitation/emission wavelength—490/525 nm) and propidium iodide (PI; excitation/emission wavelength 535/617 nm) to confirm whether ICD occurs by the cavitation effect and cell membrane rupture caused by ultrasound.

verteporfin [VPF]
cell death type (FITC-annexin V / PI staining): induced the apoptosis of cancer cells
